The source of these data is patent US11065343B2, “Compound bearing beta-galactoside-introduced self-immolative linker” (IntoCell Inc., priority 2016, dated 2021).

Like-named read-outs stand apart in the source and are kept apart here. *1 amine or outer side, *2 acyl side, *3 side chain or, on linkers, in order; H or OH if unused. Where a SMILES comes first, the peptide text is derived from it. [ ]: non-standard residue; d: D form. ξ: configuration not given here. Dil(5ξ) = CCC(C)[C@@H]([C@@H](CC(=O)[*:2])OC)N(C)[*:1]; Dolaproine = CO[C@@H]([C@@H]1CCCN1)[C@@H](C)C(=O)O; NMeV = CN[C@H](C(=O)O)C(C)C; ξF = NC(Cc1ccccc1)C(=O)O Bounds are passed on as bounds.

One data set relates to KB cancer cell line. Kind of data set: In vitro cytotoxicity of ligand-drug conjugates (MTT). Conditions: for IC50: read-out: Cell cytotoxicity IC50. The format is cell-based, human. As for the experimental part:
KB cancer cell line was seeded 30,000 cells per well of a 96-well plate, and after the culture for 24 hours, the drug MMAF-OMe was treated with a concentration of 0.0097˜10 nM (4-fold serial dilution), ligand-drug conjugate (B) prepared in Comparative Example 2 and ligand-drug conjugate (1) prepared in Example 2 were treated with a concentration of 0.0244-100 nM (4-fold serial dilution). The number of live cell after 72 hours was quantified by using 3-(4,5-dimethylthiazol-2-yl)-2,5-diphenyltetrazolium bromide (MTT) dye as chromogenic reagent. And then formazan reduced by oxidoreductase present in live cells were dissolved in DMSO, and quantified. […] Therefore, in the case of compound (1) to which galactoside linker is introduced, it could be confirmed that it has better efficacy compared with compound (B) to which glucuronide linker is introduced.

Data set [1] deals with T1, Beta-galactosidase enzyme (Sigma G4155) in E. coli (Escherichia coli, UniProt P00722).
T1 construct: purchased Sigma G4155
T1 sequence (P00722 2-1024): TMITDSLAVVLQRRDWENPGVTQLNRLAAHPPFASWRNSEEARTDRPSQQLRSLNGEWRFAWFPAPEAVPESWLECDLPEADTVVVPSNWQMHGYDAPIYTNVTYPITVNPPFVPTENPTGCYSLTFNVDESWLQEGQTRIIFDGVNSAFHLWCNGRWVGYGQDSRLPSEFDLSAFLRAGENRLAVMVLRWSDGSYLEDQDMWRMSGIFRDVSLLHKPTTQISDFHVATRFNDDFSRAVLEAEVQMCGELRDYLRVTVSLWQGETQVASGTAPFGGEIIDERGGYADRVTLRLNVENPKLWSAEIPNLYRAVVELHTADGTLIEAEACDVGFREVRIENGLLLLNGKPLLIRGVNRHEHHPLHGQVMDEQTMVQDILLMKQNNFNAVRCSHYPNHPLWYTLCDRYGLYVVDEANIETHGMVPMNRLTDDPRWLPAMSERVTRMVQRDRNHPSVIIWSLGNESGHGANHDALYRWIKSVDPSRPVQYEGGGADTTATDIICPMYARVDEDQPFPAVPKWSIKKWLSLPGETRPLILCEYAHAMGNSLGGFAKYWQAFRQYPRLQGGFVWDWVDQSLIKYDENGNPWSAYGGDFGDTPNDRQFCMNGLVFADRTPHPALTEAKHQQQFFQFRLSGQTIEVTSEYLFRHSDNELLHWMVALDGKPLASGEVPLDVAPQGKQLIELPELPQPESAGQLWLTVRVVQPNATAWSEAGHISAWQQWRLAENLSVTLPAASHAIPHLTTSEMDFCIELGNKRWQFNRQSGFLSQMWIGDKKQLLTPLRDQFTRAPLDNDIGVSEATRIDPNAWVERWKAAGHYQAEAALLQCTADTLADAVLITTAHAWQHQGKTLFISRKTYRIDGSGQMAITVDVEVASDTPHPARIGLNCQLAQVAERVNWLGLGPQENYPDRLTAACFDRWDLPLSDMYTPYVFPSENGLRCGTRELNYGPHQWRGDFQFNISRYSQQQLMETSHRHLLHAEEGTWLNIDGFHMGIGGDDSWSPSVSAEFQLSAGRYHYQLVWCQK
Kind of data set: in vitro. The format is biochemical. The conditions noted are these: (1) with beta-galactosidase versus (B) with beta-glucuronidase. How it is done:
(§1) In order to identify the reactivity of ligand-drug conjugate (1) of Example 2 to β-galactosidase, the difference of the reactivity to R-glucuronidase between it and ligand-drug conjugate (B) of Comparative Example 2 as a comparative material was compared.
(§2) Ligand-drug conjugate (1) of Example 2 and ligand-drug conjugate (B) of Comparative Example 2 were respectively dissolved in DMSO to a concentration of 9 mM, and then each of them was mixed with PBS buffer solution to prepare 500 μM of solution.
(§3) An enzyme reaction solution for ligand-drug conjugate (1) of Example 2 was prepared by adding 1 mg/mL enzyme solution (10 μL) to the mixed solution comprising PBS buffer solution (440 μL) and 500 μM ligand-drug conjugate (1) solution (50 μL) of Example 2, then the reaction was initiated in 37° C. of the incubator.
(§4) Beta-galactosidase enzyme (Sigma G4155) in E. coli was used for the reaction mixture comprising ligand-drug conjugate (1) of Example 2 and beta-glucuronidase enzyme (Sigma G7396) in E. coli was used for the reaction mixture comprising ligand-drug conjugate (B) of Comparative Example 2 for the comparison experiment.
(§5) That is, in the case of compound (1) to which galactoside linker is introduced, it could be confirmed that it has more rapid hydrolysis rate 6 times or more, relative to comparison compound (B) to which glucuronide linker is introduced.

The next data set addresses T2, beta-galactosidase (Escherichia coli, UniProt P00722).
T2 construct: purchased Sigma G4155
Kind of data set: in vitro. Format: biochemical, E. coli. Conditions: Escherichia coli; beta-galactosidase, PBS buffer, 37° C., HPLC; read-out: hydrolysis half-life by enzyme. How it is done:
as §1, §2, §3, §4, §5

The next data set addresses T3, folate receptor (Homo sapiens, UniProt P15328).
T3 construct: Soluble plasma membrane from KB human cancer cells were isolated; endogenous in cells; host or cells: KB human cancer cells (plasma membrane protein extract, Abcam kit ab65400)
As to the kind of experiment: Binding affinity of ligand-drug conjugate to folic acid receptor (competition with FA-Cy5 tracer, polarized light). How it is done: Soluble plasma membrane from KB human cancer cells were isolated using plasma membrane protein extraction kit (ab65400) (Abcam company). […] After the preincubation for 15 minutes, FA-Cy5 tracer prepared in Preparation Example 10 was treated with a concentration of 1 nM, and after the reaction for 2 hours at 37° C., synergy2 microplate reader (BioTek company) (ex/em=635/688 nm) was used to measure polarized light.

T3 sequence (P15328 25-234): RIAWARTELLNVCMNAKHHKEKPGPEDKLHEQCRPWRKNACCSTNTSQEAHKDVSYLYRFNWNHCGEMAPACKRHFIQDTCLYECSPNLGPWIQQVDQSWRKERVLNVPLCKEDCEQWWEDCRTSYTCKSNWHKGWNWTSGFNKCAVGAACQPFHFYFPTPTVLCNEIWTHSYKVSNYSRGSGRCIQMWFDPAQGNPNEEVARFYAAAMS
T2 sequence (P00722 2-1024): as the sequence (P00722 2-1024) above

A word on the IC50: it is the concentration needed to halve the response being measured. As to `CCC(C)[C@@H]([C@@H](CC(=O)N1CCC[C@H]1[C@H](OC)[C@@H](C)C(=O)NC(Cc1ccccc1)C(=O)OC)OC)N(C)C(=O)[C@@H](NC(=O)[C@@H](NC)C(C)C)C(C)C` (stereo partly shown) [MMAF-OMe, reference compound] (H-[NMeV]V[Dil(5ξ)][Dolaproine][ξF]-OMe), the IC50 in the data set on KB cancer cell line (Homo sapiens, KB, 72 h) turned out to be 0.38 ± 0.17 nM.
A word on the half-life: it is the time needed for the level to fall by half in the phase considered. Consider `CCC(C)[C@@H]([C@@H](CC(=O)N1CCC[C@H]1[C@H](OC)[C@@H](C)C(=O)N[C@@H](Cc1ccccc1)C(=O)O)OC)N(C)C(=O)[C@@H](NC(=O)[C@H](C(C)C)N(C)C(=O)OCc1ccc(O[C@@H]2O[C@H](CO)[C@H](O)[C@H](O)[C@H]2O)c(C(=O)NCCOCCOCCOCc2cn(CCC(=O)N[C@@H](CCCCN)C(=O)NCCOCCOCCNC(=O)CC[C@H](NC(=O)c3ccc(NCc4cnc5nc(N)[nH]c(=O)c5n4)cc3)C(=O)O)nn2)c1)C(C)C` (stereo partly shown) [ligand-drug conjugate (1)], for which the “more rapid hydrolysis rate relative to comparison compound (B)” value in data set [1] was ≥ 6 times. Further, the half-life at 50 µM at beta-galactosidase amounted to 34.7 min. Also, the IC50 on folate receptor was 17.5 nM; in the data set with KB cancer cell line (KB cell, 72 hours, MTT), 0.44 ± 0.12 nM. The “binding affinity (IC50) better than (B)” value on folate receptor (relative to ligand-drug conjugate (B)) is given as 2.5 fold. In the data set on KB cancer cell line (KB cell, relative to conjugate (B)), the “cytotoxicity better than conjugate (B)” value is on record as “about twofold”.
